Data taken from US5110933A, “Salts of 3-azabicyclo[3.3.1]nonanes as antiarrhythmic agents, and precursors thereof” (Board of Regents of Oklahoma State University, priority 1990, dated 1992).

Key:
[1] = system: Sustained ventricular tachycardia induced by electrical pacing of infarcted dog heart; assay: Antiarrhythmic activity on sustained ventricular tachycardia induced by electrical pacing of infarcted dog heart; format: in vivo; conditions: for ability to reduce the rate of the induced VT or to eliminate the same: 3 mg/kg as well as 6 mg/kg
From the text: To illustrate the useful biological properties of the compounds described in this invention, selected derivatives were screened for antiarrhythmic activity using dog models. The clinically used agent lidocaine and 7-benzyl-3-thia-7-azabicyclo[3.3.1]nonane hydroperchlorate (48) [U.S. Pat. No. 4,581,361] were employed as standards as basis for comparison. A small infarction was created in an area of the dog heart and thereafter electrical pacing was initiated to generate a sustained ventricular tachycardia (VT). This irregular beating pattern of the heart results in a reduction of the pumping capability of the heart in a manner now accepted as resembling symptoms observed in humans during a heart attack (see: Scherlag, B. J. et. al., Am. J. Cardiol. 1983, 51, 207; Bailey, B. R. et. al., J. Med. Chem. 1984, 27, 759; Thompson, M. D. et. al., J. Med. Chem. 1987, 30, 780; U.S. Pat. No. 4,581,361; and U.S. Pat. No. 4,778,892 for further details, said references incorporated herein for such purposes). The effects of the selected compounds in terms of ability to reduce the rate of the induced VT or to eliminate the same (abolish the VT completely or at least not allow it to be sustained) is then evaluated and compared to lidocaine or to 7-benzyl-3-thia-7-azabicyclo[3.3.1]nonane hydroperchlorate (48).

[2] = Tissue distribution of radioactivity after oral administration of (48)*; parameters: species or system rats; conditions: rat, in vivo
From the text: In order to determine the potential viability of members of the above family to act as useful antiarrhythmic agents in vivo, a pharmacokinetic and metabolism study was undertaken using a representative example from the above compounds. The techniques employed in these preliminary studies are well documented, but a summary of pharmacokinetic procedures can be found in: J. D. Baggot, "Principals of Drug Disposition in Domestic Animals: The Basis of Veterinary Clinical Pharmacology", W. B. Saunders Company, Philadelphia, 1977. These studies were conducted using ^14 C-labelled (48)* [Prepared by the method of Zisman, Berlin, et al. J. Labelled Compounds and Radiopharmaceuticals, In Press (1989)] in Sprague-Dawley rats.
Tissue distribution of (48)* was studied by measuring the radioactivity in selected organs collected from rats sacrificed at several time intervals after oral administration. […] These observations correlate well with the high volume of distribution calculated from pharmacokinetic data.

[3] = parameters: species or system rats; conditions: rat, in vivo, po

Molecule	ability to reduce the rate of the induced VT or to eliminate the same [1]	Effect on SVT ([1]; 3mg/kg)	Effect on SVT ([1]; 6mg/kg)	also measured
CC(C)N1CC2CC(CN(C(=O)c3ccccc3)C2)C1 [(1), 3-Benzoyl-7-isopropyl-3,7-diazabicyclo[3.3.1]nonane Hydroperchlorate]	extremely effective in eliminating the induced VT	–	–	–
COc1ccc(C(=O)N2CC3CC(C2)CN(C(C)C)C3)cc1OC.[O-][Cl+3]([O-])([O-])O [(3), 3-(3',4'-Dimethoxybenzoyl)-7-isopropyl-3,7-diazabicyclo[3.3.1]nonane Hydroperchlorate]	extremely effective in eliminating the induced VT	–	–	–
CC(C)N1CC2CC(CN(Cc3ccccc3)C2)C1 [(5), 7-Benzyl-3-isopropyl-3,7-diazabicyclo[3.3.1]nonane Hydroperchlorate]	extremely effective in eliminating the induced VT	–	–	–
CC(C)N1CC2CSCC(C2)C1 [(8), 7-Isopropyl-3-thia-7-azabicyclo[3.3.1]nonane Hydroperchlorate]	exhibited little effect on the dog model	No action	No action	–
[O-][S+]1CC2CC(CN(Cc3ccccc3)C2)C1 (stereo not drawn) [(10), 7-Benzyl-3-thia-7-azabicyclo[3.3.1]nonane 3-Oxide Hydroperchlorate]	reduced the rates of the induced VT but did not abolish them	Reduced rate of VT	Reduced rate of VT	–
COC1(OC)C2CSCC1CN(Cc1ccccc1)C2 [(11), 7-Benzyl-9,9-dimethoxy-3-thia-7-azabicyclo[3.3.1]-nonane Hydroperchlorate]	extremely effective in eliminating the induced VT	–	–	–
COC1(OC)C2CN(Cc3ccccc3)CC1CN(Cc1ccccc1)C2 [(12), 3,7-Dibenzyl-9,9-dimethoxy-3,7-diazabicyclo[3.3.1]nonane Hydroperchlorate]	reduced the rates of the induced VT but did not abolish them	Reduced	Reduced	–
O=C(c1ccccc1)N1CC2CSCC(C2)C1 [(15)]	reduced the rates of the induced VT but did not abolish them	Reduced	Reduced	–
O=C1C2CC(CN(Cc3ccccc3)C2)CN1Cc1ccccc1 (stereo not drawn) [(17), 3,7-Dibenzyl-3,7-diazabicyclo[3.3.1]nonan-2-one]	reduced the rates of the induced VT but did not abolish them	Reduced	Reduced	–
c1ccc(CN2CC3CSCC(C3)C2)cc1 [(48)]	–	–	–	radioactivity in liver and kidney [2]: High levels of radioactivity; radioactivity in the heart [2]: Reasonably high concentrations of radioactivity; excretion in urine [3]: most of the dose was excreted in the form of metabolites
Ethyl 3-Benzyl-3-azabicyclo[3.3.1]nonane-7-(endo)-carboxylate Hydroperchlorate [(13)]	extremely effective in eliminating the induced VT	–	–	–
Ethyl 3-Benzyl-9,9-(1,3-dithiolan-2-yl)-3-azabicyclo[3.3.1]nonane-7-(endo)-carboxylate Hydroperchlorate [(14)]	extremely effective in eliminating the induced VT	–	–	–
